Data published in US20100267753A1, “METHODS OF TREATING DISORDERS ASSOCIATED WITH PROTEIN KINASE CK2 ACTIVITY” (priority 2009, published 2010).
pIC50: −log10 of the molar value. “And” between values parts separate entries of the source, which are not always exact repeats. Equal values may be shown once. Read-outs that look alike come from different tables or passages of the source.

Assays:
[1] = test system: 92HT599 (CXCR4-tropic HIV-1 Subtype B virus); test: PBMC assay, HIV-1 92HT599; type: cell-based; conditions: Virus 92HT599, PBMCs
Procedure: (§1) Acute infection of HIV-1 isolates (CXCR4-tropic HIV-1 Subtype B and CCR5-tropic HIV-1 Subtype) using fresh human PBMCs from multiple donors (PMA and IL-2 stimulated). Antiviral activity determined as a reduction in reverse transcriptase after 7-day incubation.
(§2) TI=TC/IC; also referred to as Therapeutic Index values (TI) or Antiviral Index (AI)
(§3) Antiviral activity was determined as a reduction in reverse transcriptase after 7-day incubation. AZT, a nucleoside analog reverse transcriptase inhibitor, was used as the positive control for the assay.
(§4) 92HT599 is a CXCR4-tropic HIV-1 Subtype B virus. 91US005 is CCR5-tropic HIV-1 Subtype B virus.

[2] = test system: 91US005 (CCR5-tropic HIV-1 Subtype B virus); test: PBMC assay, HIV-1 91US005; type: cell-based; conditions: Virus 91US005, PBMCs
Procedure: as §1, §2, §3, §4

[3] = test system: eight CCR5-tropic HIV-1 clinical isolates; test: CCR5-tropic HIV-1 clinical isolates in fresh human PBMCs; type: cell-based; conditions: FIG. 5, fresh human PBMCs
fresh human PBMCs = test: PBMC assay, host cell cytotoxicity; type: cell-based; conditions: for CC50: PBMCs, read-out: TC50 (the source's name)
HIV-1 = test: U1 latent infection assay, antiviral (reverse transcriptase); type: cell-based; conditions: U1 latent/induced
Procedure: Histocytic leukemia cell line U937, latently infected with HIV-1, are treated with TNFα to induce virus expression in the presence of test compound. Antiviral activity is determined as a reduction in reverse transcriptase after 72 hr incubation.
as §2
The histocytic leukemia cell line U937, latently infected with HIV-1, was treated with TNFα to induce virus expression in the presence of test compound. Antiviral activity was determined as a reduction in reverse transcriptase after 72 hr incubation. Temacrazine, an inhibitor of HIV transcription initiation, was used as the positive control for the assay.

[4] = test system: U937, latently infected with HIV-1 (U1 cells); test: U1 latent infection assay, host cell cytotoxicity; type: cell-based; conditions: U1 latent/induced, 72 hr; read-out: TC50 (the source's name)
[5] = Pharmacokinetics in mouse (IV bolus or oral dose); type: in vivo; conditions: mice; for Cmax: read-out: Cmax-obs; for half-life: read-out: t1/2 (converted)
Procedure: The pharmacokinetics properties of drugs were investigated in three species, following an intravenous (IV) bolus or oral (PO) dose of Compound K at the dosages indicated in the chart. Blood samples were collected at predetermined times and the plasma separated. Plasma was separated from the blood samples collected at 5, 15 and 30 minutes and 1, 2, 4, 8 and 24 hours post-dose.
Drug levels were quantified by the LC/MS/MS method described below. Noncompartmental pharmacokinetic analysis was applied for intravenous administration. […] The terminal t1/2 and C0 were calculated using the last three and the first three data points, respectively
Bioanalysis was performed using a Quattro Micro LC/MS/MS instrument in the MRM detection mode, with an internal standard (1S). Briefly, 15 μL plasma samples were prepared for analysis using protein precipitation with 120 μL of acetonitrile. The supernatants were transferred into a 96 well plate and subjected to LC-MS/MS analysis using a Phenomenex Polar-RP HPLC column. The mobile phases were 10 mM NH4HCO3 in water (Solution-A) and 10 mM NH4HCO3 in methanol (Solution-B). The column was initially equilibrated with 25% Solution-B and followed with 100% Solution B over 5 minutes. […] Quantitation of the analytes was performed in the batch mode with two bracketing calibration curves according to the bioanalytical sample list.

[6] = U1 latent infection assay, host cell cytotoxicity; type: cell-based; conditions: human, U1 latent/induced, read-out: TC50
[7] = PBMC assay, host cell cytotoxicity; type: cell-based, human; conditions: human; PBMCs; read-out: TC50
[8] = test system: formalin-induced persistent pain; test: Formalin-induced persistent pain model (flinching); type: in vivo, ICR mice; conditions: 3 mg/kg, subcutaneously injected, positive control
Procedure: See Hunskaar, et al., “The formalin test in mice: Dissociation between inflammatory and non-inflammatory pain,” Pain, vol. […] 89, 53-63 (2000). These tests were conducted with ICR mice, in accordance with guidelines established by the International Association for the Study of Pain. Compounds of the invention were used as solutions of about 3-20 mg/mL in aqueous solution at about pH 8. […] The test animals were monitored for at least 40 minutes, during which time the number of flinches occurring during each 5-minute period were observed and recorded. A cohort of 12 animals were used for each dose level of each compound tested.
The compounds were administered orally in a single dose, of 30, 100, and 200 mg/kg, one hour prior to injection of formalin Pain response was measured by flinching frequency.

[9] = test system: CFA-induced thermal hyperalgesia; test: CFA-induced thermal hyperalgesia model (Hargreaves); type: in vivo, ICR mice; conditions: single intraperitoneal dose 50 mg/kg; 1, 2, and 4 hours after administration
Procedure: The observations of pain responses were done blindly.
[…] On day 4, test subjects received a single injection of CFA (20 microliters) subcutaneously in the plantar surface of the left rear paw. CFA was injected subcutaneously into the plantar surface of the left hind paw of each test subject, under isoflurane anesthesia. […] On day 5, thermal responses were measured prior to treatment with the compound and again 1, 2, and 4 hours after treatment with […]. Withdrawal latencies were measured in response to thermal stimulus by the Hargreaves method. Naproxen was used as a positive control.

[10] = TNFα, reverse transcriptase after 72 hr
[11] = Human immunodeficiency virus 1, PBMC, 168 h, 7-day incubation
[12] = Human immunodeficiency virus 1, PBMC
[13] = Human immunodeficiency virus 1, 72 h, 72 hr, positive control

## Cc1cn([C@H]2C[C@H](N=[N+]=[N-])[C@@H](CO)O2)c(=O)[nH]c1=O [AZT, reference compound]
[1]
  TI (TC50/IC50): >665
[1]; positive control
  pIC50: 8.82
  IC90: 7.58 nM
[2]
  TI (TC50/IC50): >611
[2]; positive control
  pIC50: 8.79
  IC90: 6.86 nM
[3]
  HIV-1 93TH073 Clade E replication: inhibition of HIV-1 93TH073 Clade E replication
Fresh human PBMCs; positive control
  CC50: > 1000 nM

## C#Cc1cccc(Nc2nc3cc(C(=O)[O-])ccc3c3cncnc23)c1.[Na+] [Compound 1 Na]
HIV-1
  TI (TC50/IC50): 87.3
HIV-1; 72 hr
  IC90: 9080 nM
HIV-1; [10]
  pIC50: 6.70
[4]
  CC50: 17100 nM
[1]
  IC90: 2770 nM
  TI (TC50/IC50): 3.07
[1]; 7-day incubation
  pIC50: 5.94
[2]
  IC90: 1410 nM
  TI (TC50/IC50): 35.8
[2]; 7-day incubation
  pIC50: 7.00
Fresh human PBMCs
  CC50: 3530 nM

## C#Cc1cccc(Nc2nc3cc(C(=O)O)ccc3c3cncnc23)c1 [Compound 1, 5-(3-ethynylphenylamino)pyrimido[4,5-c]quinoline-8-carboxylic acid]
[5]; IV 5.4 mg/kg
  CLs: 5.28 mL/min/kg
  Cp0-exp: 29442.03 ng/mL
  Kel: 0.0678 h⁻¹
[5]; PO 10.8 mg/kg
  F(0-24 h): 7.2%
  F(0-Inf): 11.0%
  Kel: 0.0323 h⁻¹
[5]; mouse, plasma, iv, 5.4 mg/kg, AUC(0-8 h), IV 5.4 mg/kg
  AUC(0-t): 11200 ng·h/mL
[5]; mouse, plasma, iv, 5.4 mg/kg, IV 5.4 mg/kg, read-out: AUC(0-24 h)
  AUC(0-t): 15300 ng·h/mL
[5]; mouse, plasma, po, 10.8 mg/kg, AUC(0-8 h), PO 10.8 mg/kg
  AUC(0-t): 1050 ng·h/mL
[5]; mouse, plasma, po, 10.8 mg/kg, PO 10.8 mg/kg, read-out: AUC(0-24 h)
  AUC(0-t): 2210 ng·h/mL
[5]; mouse, plasma, IV 5.4 mg/kg
  AUC(0-inf): 17000 ng·h/mL
  Cmax: 21800 ng/mL
  half-life: 10.2 h
[5]; mouse, plasma, IV 5.4 mg/kg, read-out: Vd
  Vd: 4.67 L/kg
[5]; mouse, plasma, PO 10.8 mg/kg
  AUC(0-inf): 3760 ng·h/mL
  Tmax: 0.25 h
  Cmax: 800 ng/mL
  half-life: 21.5 h

## O=C([O-])c1ccc2c(c1)nc(Nc1cccc(C(F)(F)F)c1)c1nc(NC3CC3)ncc12.[Na+] [Compound 2 Na]
HIV-1
  TI (TC50/IC50): >30.9 and >30.7
HIV-1; 72 hr
  IC90: > 100000 nM
HIV-1; [10]
  pIC50: 5.49
[4]
  CC50: > 100000 nM
[1]
  IC90: 20600 nM
  TI (TC50/IC50): 2.65
[1]; 7-day incubation
  pIC50: 5.34
[2]
  IC90: 3770 nM
  TI (TC50/IC50): 59.6
[2]; 7-day incubation
  pIC50: 6.70
Fresh human PBMCs
  CC50: 12000 nM

## O=C(O)c1ccc2c(c1)nc(Nc1cccc(C(F)(F)F)c1)c1nc(NC3CC3)ncc12 [Compound 2]
Fresh human PBMCs
  cytotoxicity in PBMC's: minimal cytotoxicity

## O=C(O)c1ccc2c(c1)nc(Nc1cccc(Cl)c1)c1ccncc12 [Compound K Na]
HIV-1; Human immunodeficiency virus 1, 72 h, 72 hr
  IC90: 18000 nM
HIV-1; Human immunodeficiency virus 1, 72 h, TNFα, reverse transcriptase after 72 hr
  pIC50: 6.15
HIV-1
  TI (TC50/IC50): 15.2
[6]
  CC50 at 72 h: 10600 nM
[1]; [11]
  pIC50: 5.46
[1]; [12]
  IC90: 8250 nM
[1]
  TI (TC50/IC50): 2.18
[2]; [11]
  pIC50: 5.97
[2]; [12]
  IC90: 3050 nM
[2]
  TI (TC50/IC50): 7.13
[7]
  CC50 at 7 days: 7610 nM

## O=c1c2ccccc2n2nnc3ccc(NCCCN4CCN(CCCNc5ccc6nnn7c8ccccc8c(=O)c5c67)CC4)c1c32 [Temacrazine, reference compound]
HIV-1; [13]
  pIC50: 8.45
  IC90: 17.9 nM
HIV-1
  TI (TC50/IC50): >28.1 and >27.4
HIV-1; 72 hr, positive control
  pIC50: 8.44
  IC90: 16.9 nM
[6]; positive control
  CC50 at 72 h: > 100 nM

## CN1CC[C@]23c4c5ccc(O)c4O[C@H]2[C@@H](O)C=C[C@H]3[C@H]1C5 [morphine, reference compound]
[8]
  formalin-induced flinching, first phase: reduced formalin-induced flinching
  formalin-induced flinching, second phase: reduced formalin-induced flinching

## COc1ccc2cc([C@H](C)C(=O)O)ccc2c1 [naproxen, reference compound]
[9]
  effect on CFA-induced thermal hyperalgesia: significantly reversed the CFA-induced thermal hyperalgesia
